Data as given in BigSolDB 2.1.

Oc1ccc(Cl)c2cccnc12
solubility (mole fraction)
Details | 278.15 K | 283.15 K | 288.15 K | 293.15 K | 298.15 K | 303.15 K | 308.15 K | 313.15 K | 318.15 K | 323.15 K
in 1,4-dioxane | – | – | 0.0556 | 0.064 | 0.0751 | 0.0875 | 0.102 | 0.119 | 0.14 | 0.161
in 2-ethoxyethanol | 0.0161 | 0.0194 | 0.0249 | 0.0284 | 0.0333 | 0.0398 | 0.0466 | 0.055 | 0.0646 | 0.0768
in ethanol | 0.00253 | 0.00304 | 0.00376 | 0.00468 | 0.00564 | 0.00694 | 0.00839 | 0.0101 | 0.0121 | 0.0145
in n-propyl acetate | 0.015 | 0.0178 | 0.0213 | 0.0251 | 0.0297 | 0.0355 | 0.0416 | 0.0495 | 0.0587 | 0.0696
